Some results are limits rather than exact numbers.

The target of data set [1] is T1, yeast cytochrome c peroxidase (yCcP) (Saccharomyces cerevisiae, UniProt P00431).
T1 sequence (P00431 68-361): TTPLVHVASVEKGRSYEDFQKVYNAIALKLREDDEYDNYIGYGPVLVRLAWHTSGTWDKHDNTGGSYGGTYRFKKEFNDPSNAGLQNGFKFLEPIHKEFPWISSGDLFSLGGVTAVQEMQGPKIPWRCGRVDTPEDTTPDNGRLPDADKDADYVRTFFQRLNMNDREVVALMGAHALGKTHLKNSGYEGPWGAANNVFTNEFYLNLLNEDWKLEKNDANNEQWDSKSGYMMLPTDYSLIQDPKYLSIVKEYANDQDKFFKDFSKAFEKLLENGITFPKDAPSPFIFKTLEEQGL
Nature of the data set: Equilibrium binding to heme of yCcP by spectrophotometric titration. Set-up: species or system S. cervisiae. Conditions: for KAapp: calculated from best-fit line.

Another data set concerns the target horse metMb. Conditions: read-out: KDapp, metMb; pH 7; cited from earlier work.
In data set [2] the target is rCcP (heme and Trp-191 cavity) (Saccharomyces cerevisiae, UniProt P00431). Nature of the data set: Kinetics of ligand binding to rCcP. Set-up: species or system baker's yeast. Conditions: for Time for initial binding phase to be complete: first kinetic phase, manual mixing.
In data set [3] the target is yCcP (heme and Trp-191 cavity) (Saccharomyces cerevisiae, UniProt P00431). The experiment in a line: Kinetics of ligand binding to yCcP. Particulars: for KA2: Trp-191 cavity of yCcP; for KA2 / k4: fit to Eq. 5; for k4: Trp-191 cavity of yCcP/MIM complex. Set-up: species or system S. cervisiae.
For another data set, the target named is CcP(H52L) (Saccharomyces cerevisiae, UniProt P00431, H119L). The experiment in a line: Equilibrium binding to CcP. The arrangement: species or system baker's yeast.
Chain of CcP(H52L) (P00431 68-361 H119L): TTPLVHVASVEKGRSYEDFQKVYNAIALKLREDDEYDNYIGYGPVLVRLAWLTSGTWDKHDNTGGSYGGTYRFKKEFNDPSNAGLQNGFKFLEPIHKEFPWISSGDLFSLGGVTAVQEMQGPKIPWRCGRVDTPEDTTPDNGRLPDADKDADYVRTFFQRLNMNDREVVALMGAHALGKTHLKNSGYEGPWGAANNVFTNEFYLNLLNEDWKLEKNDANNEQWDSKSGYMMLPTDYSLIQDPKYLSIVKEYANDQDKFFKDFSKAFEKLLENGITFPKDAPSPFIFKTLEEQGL
The conditions of data set [4]: neutral pH; cited from earlier work.
Data set [5] addresses recombinant cytochrome c peroxidase (rCcP) (Saccharomyces cerevisiae, UniProt P00431). Nature of the data set: Equilibrium binding to heme of rCcP by spectrophotometric titration. The arrangement: species or system baker's yeast.
Another data set concerns sperm whale metMb. Particulars: cited from earlier work.
The target in data set [6] is Chironomus plumosus metHb. Particulars: read-out: KD, Chironomus plumosus metHb imidazole complex; cited from earlier work.
For data set [7] the following is noted: ionization of free imidazole; cited from earlier work.
The subject of data set [8] is horseradish peroxidase (HRP). Conditions: pH 9.3; cited from earlier work.
The next data set has as its target horse cytochrome c. Conditions: read-out: KD, horse cytochrome c imidazole complex; cited from earlier work.
The next data set has as its target CcP(W191G). Conditions: read-out: Apparent KD, CcP(W191G)/imidazole complex; cited from earlier work.
A further data set deals with cytochrome P450CAM. Conditions: read-out: KD, cytochrome P450CAM imidazole complex; cited from earlier work.
For data set [9], the target named is Rhodobacter sphaeroides cytochrome c1. Conditions: read-out: KD, Rhodobacter sphaeroides cytochrome c1 imidazole complex; cited from earlier work.
The target of another data set is nitric oxide synthase. Particulars: read-out: KD, nitric oxide synthase imidazole complex; cited from earlier work.
Data set [10] has as its target R. capsulatus cytochrome c2(M96N). Particulars: read-out: KD, R. capsulatus cytochrome c2(M96N) imidazole complex; cited from earlier work.
Setting [11] is: 8.76 μM rCcP, 3.15 M imidazole, pH 7.0.
Where [12] appears, read: pH 7.0, biphasic imidazole titration.

Turning to `Cn1ccnc1` [1-Methylimidazole, 1-methylimidazole], the “Apparent pKa of ionizable group affecting MIM binding affinity” value in [1] (Saccharomyces cerevisiae (yeast), pH 4) amounted to 5.2 ± 0.3. For the same compound, the “Increase in binding affinity on decreasing pH from 7.5 to 4.0” value in data set [1] (yCcP) was determined as 4 fold. The KAapp in data set [1] (yCcP, pH 4.1) was 4.72 M⁻¹; in [1] (yCcP, pH 4.5), 4.37 M⁻¹; in data set [1] (yCcP, pH 5.0), 3.53 M⁻¹; in [1] (yCcP, pH 5.5) it was 2.48 M⁻¹; in data set [1] (yCcP, pH 6.0) it was 1.74 M⁻¹; in [1] (yCcP, pH 6.5), 1.40 M⁻¹. Besides, the KAapp in data set [1] (yCcP, pH 7.0) was 1.30 M⁻¹; in data set [1] (yCcP, pH 7.5), 1.24 M⁻¹. In addition, the results for the Kd (on horse metMb; in data set [3]) were 87 mM and 5 ± 2 mM, respectively. Further, in data set [2], the “kfobs faster than kfobs for the imidazole/CcP reaction” value was “about 10 times”. The “ksobs, observed rate constant of slow absorbance change” value in data set [2] (9.07 μM rCcP, 0.992 M MIM, pH 7.0) is recorded as “(1.13 ± 0.06) × 10^−4 s^−1”. Also, the “kfobs, lower limit for initial binding” value in data set [2] (assuming 97% of reaction complete within 10 s mixing) is no less than 0.35 s⁻¹. The “Time for initial binding phase to be complete” value in data set [2] is recorded as no more than 10 s; in data set [2] (listed as MIM), “less than 10 s”. In addition, the “KA1 as fraction of KAapp” value in data set [2] (pH 7) was “about 4%”. Besides, the KA2 result in data set [3] (pH 4.1) was “(2.94 ± 0.28) × 10^2 M^−1”; in data set [3] (pH 4.5), “(9.19 ± 0.52) × 10^1 M^−1”; in data set [3] (pH 5.0) it was “(1.74 ± 0.17) × 10^2 M^−1”; in [3] (pH 5.5), “(1.73 ± 0.35) × 10^2 M^−1”; in [3] (pH 6.0) it was “(2.64 ± 0.18) × 10^2 M^−1”; in data set [3] (pH 6.5) it was “(2.13 ± 0.27) × 10^2 M^−1”. The KA2 result in data set [3] (pH 7.0) is “(2.13 ± 0.81) × 10^3 M^−1”; in data set [3] (pH 7.5), “(4.52 ± 5.10) × 10^3 M^−1”. For the same compound, the k4 result in data set [3] (pH 4.1) is listed as “(1.55 ± 0.08) × 10^−1 M^−1 s^−1”; in data set [3] (pH 4.5), “(2.49 ± 0.16) × 10^−2 M^−1 s^−1”; in data set [3] (pH 5.0) it was “(2.72 ± 0.35) × 10^−2 M^−1 s^−1”; in [3] (pH 5.5), “(1.14 ± 0.03) × 10^−2 M^−1 s^−1”; in [3] (pH 6.0), “(1.60 ± 0.03) × 10^−2 M^−1 s^−1”; in [3] (pH 6.5), “(1.26 ± 0.03) × 10^−2 M^−1 s^−1”. For the same compound, the results for the k4 result in [3] (pH 7.0) and in [3] (pH 7.5) were “(9.21 ± 3.17) × 10^−3 M^−1 s^−1” and “(5.48 ± 1.2) × 10^0 M^−1 s^−1”, respectively. Further, the “k4, average” value in data set [3] (binding into Trp-191 cavity of heme-ligated yCcP, average pH 4.1 to 6.5) was “(4.1 ± 0.6) × 10^−2 M^−1s^−1”. Moreover, in data set [3] (binding into Trp-191 cavity, yCcP, average pH 4.1 to 6.5), the “KA2, average” value is 200 ± 70 M⁻¹.
With `O=[N+]([O-])c1c[nH]cn1` [4-Nitroimidazole, 4-nitroimidazole], the “Fraction of yCcP bound to ligand at highest ligand concentration” value in [1] (~5 mM 4NI, pH 7.0, estimate) is listed as “about 2%”. Also, the Kd at horse metMb was 2.5 mM; on CcP(H52L), roughly 30 mM; in data set [5], roughly 100 mM. Also, the “Fraction of CcP(H52L)/4NI complex formed” value on CcP(H52L) (4.80 mM 4NI, pH 7.0, estimate) was “about 14%”. Moreover, the “Affinity of CcP(H52L) higher than CcP” value at CcP(H52L) (estimated) is 7 fold. Also, in [4], the “Concentration of saturated solution in aqueous buffer” value was “less than 6 mM”. Further, the “Fraction of rCcP bound to ligand at highest ligand concentration” value in data set [5] (~5 mM 4NI, pH 7.0, estimate) is ~ 5%.
For `c1c[nH]cn1` [Imidazole, imidazole], the “Rate constant of binding to sperm whale metMb” value in the data set on sperm whale metMb was 360 M⁻¹ s⁻¹. Besides, the Kd on sperm whale metMb (read-out: KD, sperm whale metmyoglobin imidazole complex) is 26 mM; in data set [6] it was 0.029 mM; at horse cytochrome c it was 34 mM; at horse metMb it was 28 mM; at CcP(W191G), 0.7 mM; in the data set on cytochrome P450CAM, 0.4 mM. The Kd in [9] was 0.033 mM; on nitric oxide synthase, 0.063 mM; in data set [10], 0.0018 mM. In [1] (imidazole up to 4.90 M, pH 7.0), the “Fraction of yCcP bound to ligand at highest ligand concentration” value is given as “about 60%”. Besides, the “Binding to CcP weaker than binding to metmyoglobin” value in data set [1] (pH 7) is “about 120 times”. Further, in data set [7], the “pKA of free imidazole” value was 14.4. For the same compound, the “Formation of HRP/imidazole complex” value in [8] is “Only partial formation”. In data set [2] (setting [11]), the “kfobs, observed rate constant of fast phase” value is on record as “(2.13 ± 0.08) × 10^−2 s^−1”. Further, the “ksobs, observed rate constant of slow phase” value in [2] (setting [11]) is reported as “(2.91 ± 0.01) × 10^−4 s^−1”. The “High-affinity phase of CcP(H52L): greater affinity than yCcP” value at CcP(H52L) came to 25 fold. In addition, the “Low-affinity phase of CcP(H52L) weaker than binding by yCcP” value on CcP(H52L) was “about 3 times”. Moreover, the “Fraction of high-affinity phase, CcP(H52L)” value at CcP(H52L) (setting [12]) is recorded as less than 46%. Also, at CcP(H52L) (setting [12]), the “Fraction of low-affinity phase, CcP(H52L)” value is greater than 54%. In addition, in data set [5] (pH 7.0), the “KDapp of rCcP complex larger than for yCcP complex” value is on record as “about 40%”.
Consider `c1c[nH]cn1` [imidazolium ion], for which the “Rate constant of binding to sperm whale metMb” value in the data set on sperm whale metMb is 127 M⁻¹ s⁻¹.

(Values after PMC4457651 (Biochimica et biophysica acta, 2015).)
